Structures can show the parent of a compound that is named as a salt.
Assay: Solubility of bevirimat and bevirimat dimeglumine in single vehicles
Conditions: in 100% water, 100% saline, 100% dextrose, 100% PEG 400, and 25% Poloxamer 188

## C=C(C)[C@@H]1CC[C@]2(C(=O)O)CC[C@]3(C)[C@H](CC[C@@H]4[C@@]5(C)CC[C@H](OC(=O)CC(C)(C)C(=O)O)C(C)(C)[C@@H]5CC[C@]43C)[C@@H]12 [Bevirimat dimeglumine, di-N-methylglucamine salt of 3-O-(3′,3′-dimethylsuccinyl)betulinic acid]
  solubility (in words): limited solubility

— patent US20100216751A1 (priority 2007, published 2010)
